In patent US9676704B2, “Pesticidal compositions and processes related thereto” (Dow AgroSciences LLC, priority 2014, dated 2017):

Key:
Beet Armyworm (BAW) = assay: Bioassays on BAW, 128-well diet tray assay; assay type: in vivo; conditions: Spodoptera exigua; for mortality at 50 µg/cm2: 168 h, 50 μg/cm^2 on artificial diet, second instar larvae, five to seven days, 25° C., read-out: BAW % Control (or Mortality) rating; for mortality at 0.05 µg/cm2: 0.05 μg/cm^2; for mortality at 0.05 µg/cm2 / mortality at 0.5 µg/cm2 / mortality at 5 µg/cm2: read-out: BAW Percent control (or mortality); for mortality at 0.5 µg/cm2: 0.5 μg/cm^2; for mortality at 5 µg/cm2: 5 μg/cm^2
Description: Bioassays on BAW were conducted using a 128-well diet tray assay. one to five second instar BAW larvae were placed in each well (3 mL) of the diet tray that had been previously filled with 1 mL of artificial diet to which 50 μg/cm^2 of the test compound (dissolved in 50 μL of 90:10 acetone-water mixture) had been applied (to each of eight wells) and then allowed to dry. Trays were covered with a clear self-adhesive cover, and held at 25° C., 14:10 light-dark for five to seven days. Percent mortality was recorded for the larvae in each well; activity in the eight wells was then averaged. The results are indicated in the tables entitled “Table ABC: Assay Results (F)”, “Table ABCD: Assay Results (C)”, and “Table ABCDE: Assay Results (P)” (See Table Section).
(§1) Bioassays on BAW and CL were conducted according to the procedures outlined in Example A: Bioassays on Beet Armyworm (“BAW”) and Cabbage Looper (“CL”) using the following concentrations: 5, 0.5, and 0.05 μg/cm^2.

Cabbage Looper (CL) = assay: Bioassays on CL, 128-well diet tray assay; assay type: in vivo; conditions: Trichoplusia ni; for mortality at 50 µg/cm2: 168 h, 50 μg/cm^2 on artificial diet, second instar larvae, five to seven days, 25° C., read-out: CL % Control (or Mortality) rating; for mortality at 0.05 µg/cm2: 0.05 μg/cm^2; for mortality at 0.05 µg/cm2 / mortality at 0.5 µg/cm2 / mortality at 5 µg/cm2: read-out: CL Percent control (or mortality); for mortality at 0.5 µg/cm2: 0.5 μg/cm^2; for mortality at 5 µg/cm2: 5 μg/cm^2
Description: Bioassays on CL were conducted using a 128-well diet tray assay. One to five second instar CL larvae were placed in each well (3 mL) of the diet tray that had been previously filled with 1 mL of artificial diet to which 50 μg/cm^2 of the test compound (dissolved in 50 μL of 90:10 acetone-water mixture) had been applied (to each of eight wells) and then allowed to dry. Trays were covered with a clear self-adhesive cover, and held at 25° C., 14:10 light-dark for five to seven days. Percent mortality was recorded for the larvae in each well; activity in the eight wells was then averaged. The results are indicated in the table entitled “Table ABC: Assay Results (F)”, “Table ABCD: Assay Results (C)”, and “Table ABCDE: Assay Results (P)” (See Table Section).
as §1

## CC(CC(F)(F)F)C(=O)N[C@@H](C)NC(=O)c1ccc(/C=C/C(c2cc(Cl)c(Cl)c(Cl)c2)C(F)(F)F)cc1C(F)(F)F (stereo partly drawn) [Compound P30, N—((R)-1-(4,4,4-Trifluoro-2-methylbutanamido)ethyl)-4-((E)-4,4,4-trifluoro-3-(3,4,5-trichlorophenyl)but-1-en-1-yl)-2-(trifluoromethyl)benzamide]
Beet Armyworm (BAW)
  mortality at 50 µg/cm2: 50 to 100%
Cabbage Looper (CL)
  mortality at 50 µg/cm2: 50 to 100%

## C[C@H](NC(=O)CCC(F)(F)F)NC(=O)c1ccc(/C=C/C(c2cc(Cl)c(F)c(Cl)c2)C(F)(F)F)cc1C(F)(F)F (stereo partly drawn) [Compound P9, 4-((E)-3-(3,5-Dichloro-4-fluorophenyl)-4,4,4-trifluorobut-1-en-1-yl)-N—((R)-1-(4,4,4-trifluorobutanamido)ethyl)-2-(trifluoromethyl)benzamide]
Beet Armyworm (BAW)
  mortality at 50 µg/cm2: 50 to 100%
Cabbage Looper (CL)
  mortality at 50 µg/cm2: 50 to 100%

## CSCC(=O)N[C@@H](C)NC(=O)c1ccc(/C=C/C(c2cc(Cl)c(Cl)c(Cl)c2)C(F)(F)F)cc1C(F)(F)F (stereo partly drawn) [Compound P54, N—((S)-1-(2-(Methylthio)acetamido)ethyl)-4-((E)-4,4,4-trifluoro-3-(3,4,5-trichlorophenyl)but-1-en-1-yl)-2-(trifluoromethyl)benzamide]
Beet Armyworm (BAW)
  mortality at 50 µg/cm2: 50 to 100%
Cabbage Looper (CL)
  mortality at 50 µg/cm2: 50 to 100%

## C[C@H](NC(=O)CCC(F)(F)F)NC(=O)c1ccc(/C=C/C(c2cc(Cl)c(Cl)c(Cl)c2)C(F)(F)F)cc1C(F)(F)F (stereo partly drawn) [Compound F1, 4-((E)-4,4,4-Trifluoro-3-(3,4,5-trichlorophenyl)but-1-en-1-yl)-N—((R)-1-(4,4,4-trifluorobutanamido)ethyl)-2-(trifluoromethyl)benzamide]
Beet Armyworm (BAW)
  mortality at 50 µg/cm2: 50 to 100%
  mortality at 0.05 µg/cm2: 100%
  mortality at 0.5 µg/cm2: 100%
  mortality at 5 µg/cm2: 100%
Cabbage Looper (CL)
  mortality at 50 µg/cm2: 50 to 100%
  mortality at 0.05 µg/cm2: 97%
  mortality at 0.5 µg/cm2: 100%
  mortality at 5 µg/cm2: 100%

## Cc1cc(/C=C/C(c2cc(Cl)c(Cl)c(Cl)c2)C(F)(F)F)ccc1C(=O)N[C@H](C)NC(=O)CC(F)(F)F (stereo partly drawn) [Compound P22, 2-Methyl-4-((E)-4,4,4-trifluoro-3-(3,4,5-trichlorophenyl)but-1-en-1-yl)-N—((R)-1-(3,3,3-trifluoropropanamido)ethyl)benzamide]
Beet Armyworm (BAW)
  mortality at 50 µg/cm2: 50 to 100%
  mortality at 0.05 µg/cm2: 25%
  mortality at 0.5 µg/cm2: 100%
  mortality at 5 µg/cm2: 100%
Cabbage Looper (CL)
  mortality at 50 µg/cm2: 50 to 100%
  mortality at 0.05 µg/cm2: 63%
  mortality at 0.5 µg/cm2: 100%
  mortality at 5 µg/cm2: 100%

## O=C(CCC(F)(F)F)NCNC(=O)c1ccc(/C=C/C(c2cc(Cl)c(Cl)c(Cl)c2)C(F)(F)F)cc1C(F)(F)F (stereo not drawn) [Compound F13, (E)-4-(4,4,4-Trifluoro-3-(3,4,5-trichlorophenyl)but-1-en-1-yl)-N-((4,4,4-trifluorobutanamido)methyl)-2-(trifluoromethyl)benzamide]
Beet Armyworm (BAW)
  mortality at 50 µg/cm2: 50 to 100%
Cabbage Looper (CL)
  mortality at 50 µg/cm2: 50 to 100%

## C[C@H](NC(=O)CC(F)(F)F)NC(=O)c1ccc(/C=C/C(c2cc(Cl)c(Cl)c(Cl)c2)C(F)(F)F)cc1 (stereo partly drawn) [FC2, 4-((E)-4,4,4-Trifluoro-3-(3,4,5-trichlorophenyl)but-1-en-1-yl)-N—((R)-1-(3,3,3-trifluoropropanamido)ethyl)benzamide]
Beet Armyworm (BAW)
  mortality at 0.05 µg/cm2: 0%
  mortality at 0.5 µg/cm2: 0%
  mortality at 5 µg/cm2: 0%
Cabbage Looper (CL)
  mortality at 0.05 µg/cm2: 0%
  mortality at 0.5 µg/cm2: 0%
  mortality at 5 µg/cm2: 0%

## C[C@H](NC(=O)CCC(F)(F)F)NC(=O)c1ccc(/C=C/C(c2cc(Cl)c(Cl)c(Cl)c2)C(F)(F)F)cc1 (stereo partly drawn) [FC1, 4-((E)-4,4,4-Trifluoro-3-(3,4,5-trichlorophenyl)but-1-en-1-yl)-N—((R)-1-(4,4,4-trifluorobutanamido)ethyl)benzamide]
Beet Armyworm (BAW)
  mortality at 0.05 µg/cm2: 0%
  mortality at 0.5 µg/cm2: 0%
  mortality at 5 µg/cm2: 13%
Cabbage Looper (CL)
  mortality at 0.05 µg/cm2: 0%
  mortality at 0.5 µg/cm2: 0%
  mortality at 5 µg/cm2: 71%
